This passage reports EC50 results from patent US20230015478A1, “GLP-1 RECEPTOR AGONISTS HAVING IMPROVED PHARMACOLOGICAL AND DRUG DELIVERY PROPERTIES” (priority 2021, published 2023).

Square brackets hold non-standard residues; d marks the D form. Peptide text beside a SMILES is read from it. Bip = N[C@@H](Cc1ccc(-c2ccccc2)cc1)C(=O)O; αMePhe(2-F) = C[C@](N)(Cc1ccccc1F)C(=O)O; Aib = CC(C)(N)C(=O)O

T1 sequence (P43220 24-463): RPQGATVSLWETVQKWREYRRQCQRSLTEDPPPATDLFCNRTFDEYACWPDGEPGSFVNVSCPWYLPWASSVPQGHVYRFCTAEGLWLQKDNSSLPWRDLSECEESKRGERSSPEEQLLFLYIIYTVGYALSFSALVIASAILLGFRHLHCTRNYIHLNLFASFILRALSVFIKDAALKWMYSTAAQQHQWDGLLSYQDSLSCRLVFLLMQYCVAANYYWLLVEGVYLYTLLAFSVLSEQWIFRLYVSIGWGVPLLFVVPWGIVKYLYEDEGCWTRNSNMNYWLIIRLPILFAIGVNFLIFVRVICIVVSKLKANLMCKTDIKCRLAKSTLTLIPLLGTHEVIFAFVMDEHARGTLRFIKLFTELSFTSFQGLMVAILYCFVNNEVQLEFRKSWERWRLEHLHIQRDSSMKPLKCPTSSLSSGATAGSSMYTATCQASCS

This test addresses T1, hGLP1 receptor (Homo sapiens, UniProt P43220).
T1 construct: expressed in transfected cells; host or cells: HEK (human embryonic kidney) cells co-expressing hGLP1 receptor and CRE-Luciferase
Description: cAMP HTRF agonist assay in HEK cells co-expressing hGLP1 receptor and CRE-Luciferase. It is filed as cell-based. The note with it: cAMP EC50, nM (0.1% albumin), Table 3; 0.1% albumin. The method, boiled down: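 HEK cells co-expressing hGLP1R and CRE-luciferase, 1000 cells/well in DPBS with 500 μM IBMX, exposed to peptides or exendin-4 reference for 30 min; 11-point 1:3 series from top 1.0 μM. cAMP measured by HTRF (665/615 nm) after 1 h at room temperature; EC50 from 4-parameter logistic fit.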
(TR-FRET usually uses a lanthanide donor and a delayed reading to cut background.)
The EC50 is the concentration at which the effect is half-maximal. Low values mean a more potent agent, high ones a less potent agent. For `C[C@@H](O)[C@H](NC(=O)CNC(=O)[C@H](CCC(=O)O)NC(=O)C(C)(C)NC(=O)C(C)(C)N)C(=O)N[C@@](C)(Cc1ccccc1F)C(=O)N[C@H](C(=O)N[C@@H](CO)C(=O)N[C@@H](CC(=O)O)C(=O)N[C@@H](Cc1ccc(-c2ccccc2)cc1)C(=O)N[C@@H](Cc1ccc(-c2ccccc2)cc1)C(N)=O)[C@@H](C)O` [3-30, H2N-Aib-Aib-Glu-Gly-Thr-αMePhe(2-F)-Thr-Ser-Asp-Bip-Bip-C(O)NH2] (H-[Aib][Aib]EGT[αMePhe(2-F)]TSD[Bip][Bip]-NH2), the EC50 is 2.7 nM. The result for `C[C@@H](O)[C@H](NC(=O)CNC(=O)C(C)(C)NC(=O)C(C)(C)NC(=O)[C@@H](N)Cc1c[nH]cn1)C(=O)N[C@@](C)(Cc1ccccc1F)C(=O)N[C@H](C(=O)N[C@@H](CO)C(=O)N[C@@H](CC(=O)O)C(=O)N[C@@H](Cc1ccc(-c2ccccc2)cc1)C(=O)N[C@@H](Cc1ccc(-c2ccccc2)cc1)C(N)=O)[C@@H](C)O` [3-31, H2N-His-Aib-Aib-Gly-Thr-αMePhe(2-F)-Thr-Ser-Asp-Bip-Bip-C(O)NH2] (H-H[Aib][Aib]GT[αMePhe(2-F)]TSD[Bip][Bip]-NH2) reads 4.9 nM; that for `C[C@@H](O)[C@H](NC(=O)C(C)(C)NC(=O)[C@H](CCC(=O)O)NC(=O)C(C)(C)NC(=O)[C@@H](N)Cc1c[nH]cn1)C(=O)N[C@@](C)(Cc1ccccc1F)C(=O)N[C@H](C(=O)N[C@@H](CO)C(=O)N[C@@H](CC(=O)O)C(=O)N[C@@H](Cc1ccc(-c2ccccc2)cc1)C(=O)N[C@@H](Cc1ccc(-c2ccccc2)cc1)C(N)=O)[C@@H](C)O` [3-32, H2N-His-Aib-Glu-Aib-Thr-αMePhe(2-F)-Thr-Ser-Asp-Bip-Bip-C(O)NH2] (H-H[Aib]E[Aib]T[αMePhe(2-F)]TSD[Bip][Bip]-NH2), 15.8 nM.

With `C[C@@H](O)[C@H](NC(=O)[C@](C)(Cc1ccccc1F)NC(=O)C(C)(C)NC(=O)CNC(=O)[C@H](CCC(=O)O)NC(=O)C(C)(C)NC(=O)[C@@H](N)Cc1c[nH]cn1)C(=O)N[C@@H](CO)C(=O)N[C@@H](CC(=O)O)C(=O)N[C@@H](Cc1ccc(-c2ccccc2)cc1)C(=O)N[C@@H](Cc1ccc(-c2ccccc2)cc1)C(N)=O` [3-33, H2N-His-Aib-Glu-Gly-Aib-αMePhe(2-F)-Thr-Ser-Asp-Bip-Bip-C(O)NH2] (H-H[Aib]EG[Aib][αMePhe(2-F)]TSD[Bip][Bip]-NH2), the EC50 came to 7.3 nM. The result for `C[C@@H](O)[C@H](NC(=O)CNC(=O)[C@H](CCC(=O)O)NC(=O)C(C)(C)NC(=O)[C@@H](N)Cc1c[nH]cn1)C(=O)N[C@@](C)(Cc1ccccc1F)C(=O)NC(C)(C)C(=O)N[C@@H](CO)C(=O)N[C@@H](CC(=O)O)C(=O)N[C@@H](Cc1ccc(-c2ccccc2)cc1)C(=O)N[C@@H](Cc1ccc(-c2ccccc2)cc1)C(N)=O` [3-35, H2N-His-Aib-Glu-Gly-Thr-αMePhe(2-F)-Aib-Ser-Asp-Bip-Bip-C(O)NH2] (H-H[Aib]EGT[αMePhe(2-F)][Aib]SD[Bip][Bip]-NH2) reads 91.4 nM; that for `C[C@@H](O)[C@H](NC(=O)CNC(=O)[C@H](CCC(=O)O)NC(=O)C(C)(C)NC(=O)[C@@H](N)Cc1c[nH]cn1)C(=O)N[C@@](C)(Cc1ccccc1F)C(=O)N[C@H](C(=O)NC(C)(C)C(=O)N[C@@H](CC(=O)O)C(=O)N[C@@H](Cc1ccc(-c2ccccc2)cc1)C(=O)N[C@@H](Cc1ccc(-c2ccccc2)cc1)C(N)=O)[C@@H](C)O` [3-36, H2N-His-Aib-Glu-Gly-Thr-αMePhe(2-F)-Thr-Aib-Asp-Bip-Bip-C(O)NH2] (H-H[Aib]EGT[αMePhe(2-F)]T[Aib]D[Bip][Bip]-NH2), 150 nM. The result for `C[C@@H](O)[C@H](NC(=O)CNC(=O)[C@H](CCC(=O)O)NC(=O)C(C)(C)NC(=O)[C@@H](N)Cc1c[nH]cn1)C(=O)N[C@@](C)(Cc1ccccc1F)C(=O)N[C@H](C(=O)N[C@@H](CO)C(=O)NC(C)(C)C(=O)N[C@@H](Cc1ccc(-c2ccccc2)cc1)C(=O)N[C@@H](Cc1ccc(-c2ccccc2)cc1)C(N)=O)[C@@H](C)O` [3-37, H2N-His-Aib-Glu-Gly-Thr-αMePhe(2-F)-Thr-Ser-Aib-Bip-Bip-C(O)NH2] (H-H[Aib]EGT[αMePhe(2-F)]TS[Aib][Bip][Bip]-NH2) reads 91.6 nM.
